This assay concerns the target T1, GIPR (Homo sapiens, UniProt P48546).
T1 construct: host or cells: CHO-K1
T1 sequence (P48546 22-466): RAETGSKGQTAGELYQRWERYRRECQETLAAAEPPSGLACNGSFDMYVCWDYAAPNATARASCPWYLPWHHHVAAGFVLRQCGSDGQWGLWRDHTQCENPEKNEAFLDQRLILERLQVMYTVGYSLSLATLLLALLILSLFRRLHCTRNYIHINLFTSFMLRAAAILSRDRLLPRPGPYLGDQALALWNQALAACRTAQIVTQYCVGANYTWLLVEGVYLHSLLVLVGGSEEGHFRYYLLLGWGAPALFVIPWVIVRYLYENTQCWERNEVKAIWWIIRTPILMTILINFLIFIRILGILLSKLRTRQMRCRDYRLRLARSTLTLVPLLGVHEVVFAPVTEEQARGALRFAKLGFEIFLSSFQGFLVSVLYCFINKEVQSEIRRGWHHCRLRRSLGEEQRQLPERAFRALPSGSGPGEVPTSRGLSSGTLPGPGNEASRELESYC
Description: FACS binding assay. The settings on record: CHO-K1-hGIPR cells, various concentrations of biotinylated compound, 4°C for 1 hour, APC-Streptavidin detection. The protocol:
In order to determine binding of compounds according to the present invention to GIPR-expressing cells, a FACS binding assay is established.
CHO-K1-hGIPR cells (GenScript Biotech, #M00486) are cultured in Ham's F12 medium (Sigma-Aldrich, #N4888) including 10% fetal calf serum (FCS), 2 mM L-glutamine, 100 U/mL penicillin, 100 µg/mL streptomycin, 200µg/mL Zeocin and 100µg/mL HygromycinB. Cells are detached with Accutase (Biolegend, #BLD-423201) and washed in FACS buffer (PBS including 1% FCS). Cells are diluted in FACS buffer to a final concentration of 500.000 cells per mL. 200 µL of the cell suspension is transferred to a u-shaped non-binding 96-well plate (Greiner) and cells are washed in ice-cold FACS buffer.
For EC50 determination, cells are incubated with various concentrations of biotinylated compound (H-Met-Tyr-Asp-Trp-Trp-Pro-Glu-Leu-[Cys(3MeBn)-Ala-Leu-Ile-Cys]-Ttds-Lys(Bio)-NH2) (SEQ ID NO: 3) at 4°C for 1 hour. […] For IC50 determination, cells are incubated with 20 nM of the biotinylated compound in the presence of increasing concentrations of non-labeled test compounds at 4°C for 1 hour. Cells are washed twice in FACS buffer. […]
Cells are analyzed in an Attune NxT flow cytometer. Median fluorescence intensities (MFI) of the APC/Cy5-channel are calculated by Attune NxT software. […]
In general terms: A flow cytometer gives signals particle by particle.

Starred links: 1 amine or outer side, 2 acyl side, 3 side chain; linkers in the order of their positions; H or OH if unused. Positions of bridges follow the written chain, without caps; N, C: chain ends. Residues, ends and D or L forms follow the SMILES beside them. *: point of attachment. X1 = NC(=O)[C@H](CCCCNC(=O)CCCC[C@@H]1SC[C@@H]2NC(=O)N[C@@H]21)NC(=O)CCC(=O)NCCCOCCOCCOCCCN*; mXylylene = c1cc(C[*:1])cc(C[*:2])c1

`CC[C@H](C)[C@@H]1NC(=O)[C@H](CC(C)C)NC(=O)[C@H](C)NC(=O)[C@@H](NC(=O)[C@H](CC(C)C)NC(=O)[C@H](CCC(=O)O)NC(=O)[C@@H]2CCCN2C(=O)[C@H](Cc2c[nH]c3ccccc23)NC(=O)[C@H](Cc2c[nH]c3ccccc23)NC(=O)[C@H](CC(=O)O)NC(=O)[C@H](Cc2ccc(O)cc2)NC(=O)[C@@H](N)CCSC)CSCc2cccc(c2)CSC[C@@H](C(=O)NCCCOCCOCCOCCCNC(=O)CCC(=O)N[C@@H](CCCCNC(=O)CCCC[C@@H]2SC[C@@H]3NC(=O)N[C@@H]32)C(N)=O)NC1=O` [biotinylated compound, H-Met-Tyr-Asp-Trp-Trp-Pro-Glu-Leu-[Cys(3MeBn)-Ala-Leu-Ile-Cys]-Ttds-Lys(Bio)-NH2] (H-MYDWWPELCALIC-X1; linker 9-13 via mXylylene) showed an EC50 of 3.16 nM.

As usually defined, the EC50 is the concentration needed to bring the measured effect to its halfway point. Low values mean greater potency, high ones weaker potency.

These data come from patent publication EP4455159A1, “GASTRIC INHIBITORY PEPTIDE RECEPTOR LIGANDS WITH BIO-DISTRIBUTION MODIFIER” (3B Pharmaceuticals GmbH, priority 2023, dated 2024).
